Laboratory results: US20100184946A1, “Preparation of Fine Particles” (priority 2007, published 2010)

Assay: Particle form by X-ray powder diffraction (XRPD)
Format: physicochemical
Details: starting material before the process; product after freeze drying
Description: The physical form of the paclitaxel particles was measured using X-ray powder diffraction method (“XRPD”) before the process (i.e. the starting material) and again after the product of the process had been freeze dried.

physical form (XRPD): crystal structure ordering
SMILES: CC(=O)O[C@H]1C(=O)[C@@]2(C)[C@H]([C@H](OC(=O)c3ccccc3)[C@]3(O)C[C@H](OC(=O)[C@H](O)[C@@H](NC(=O)c4ccccc4)c4ccccc4)C(C)=C1C3(C)C)[C@]1(OC(C)=O)CO[C@@H]1C[C@@H]2O [paclitaxel]
